{
  "source": "patent US12600727B2",
  "about": "“Treatment of infections of toxoplasma gondii and closely related parasites” (WASHINGTON UNIVERSITY, priority 2018, dated 2026)",
  "assay_type_in_all_cases": "cell-based",
  "key": {"[1]": {"system": "Toxoplasma gondii tachyzoites (ME49-FLUC, type 2)", "test": "T. gondii ME49-FLUC tachyzoite growth inhibition in HFF, luciferase assay", "conditions": "T. gondii ME49-FLUC (type 2) tachyzoites in HFF", "experimental": "Toxoplasma gondii tachyzoites (ME49-FLUC, type 2) (27) were serially passaged in human foreskin fibroblasts (HFF) cultured in complete DMEM medium (DMEM supplemented with 10% fetal bovine serum (FBS), glutamine (10 mM) and gentamycin (10 μg/mL)). For each assay described, infected monolayers were scraped, needle passed (23 ga), and parasites were separated from host cell debris using a three (3) micron pore polycarbonate filter. HeLa cells were cultured in MEM media that contained 10% FBS, 4 mM L-glutamine and 10 mM HEPES solution. Cell culture and assays were conducted using a 37° C. incubator with 5% CO2. Cell cultures were negative for mycoplasma, as determined using the e-Myco plus kit (Intron Biotechnology).\nWhite, clear bottom 96-well assay plates were set up as described above with the following modifications. Only the inner 60 wells were used for the assay in order to reduce variability that results from evaporation during incubation. Dilution of compound stock is as described above, with all wells containing a final concentration of 0.1% DMSO. DMSO (vehicle control) and pyrimethamine (2.5 μM, positive control) were included in the outside wells of all plates as controls. Liquid handling (serial dilutions, compound dilutions, cell feeding, plate-to-plate transfers, etc.) utilized a Dual Pod Biomek FX. Luciferase assays were performed using the integrated and automated platform (Beckman Coulter). The SAMI EX software was used to design and execute the screening assay and enabled efficient and uniform assay execution across all the assay plates."}, "[2]": {"system": "Neospora caninum parasites (NC-1 strain)", "test": "N. caninum (NC-1, lac-Z) growth inhibition in HFF, β-Gal assay", "conditions": "N. caninum NC-1 lac-Z, 72 h, 10-point dose response 5 μM-0.01 μM, average of three biological replicates, read-out: EC50", "experimental": "Neospora caninum parasites (NC-1 strain) expressing a lac-Z transgene (1) were serially passaged as tachyzoites in human foreskin fibroblasts cultured in DMEM supplemented with 10% fetal bovine serum (FBS), glutamine (10 mM) and gentamycin (10 μg/mL). Mature cultures were scraped, syringe passed using a 25 g needle to release parasites, filtered through a 3 micron polycarbonate filter to remove host cell debris and counted prior to each assay. All cultures were maintained in a 37° C. incubator with 5% CO2 and were verified mycoplasma free using the e-Myco plus Mycoplasma PCR detection kit (Boca Scientific).\nCompounds were prepared as 10 mM stock in 100% DMSO. Pyrimethamine (positive control) and DMSO were included as controls in all plates and all replicates. The EC50 values were determined using a 10-point dose response curve using a 2-fold dilution series from 5.0 μM to 0.01 μM across the plate. Experiments were conducted in 96-well plates containing confluent HFF cells. Each assay plate was inoculated with 1×10^3 parasites (100 μL) containing 100 μL of 2× compound and incubated for 72 h prior to preparation for the j-Gal assay as described in Seeber, F. et al., Gene 169 (1996): 39-45, hereby incorporated by reference in its entirety and particularly in relation to the β-Gal assay protocol. Briefly, culture medium was replaced, wells rinsed with 200 μL of PBS followed by incubation with 50 μL of lysis buffer (100 mM HEPES, 1 mM MgSO4, 1% Triton X-100, 5 mM DTT) for 10 min at 50° C.\nEC50 values determined from 10-point dose response curve (5 μM-0.01 μM) and presented as the average of three biological replicates. Linear regression and dose response inhibition (log ([compound]) vs normalized response-variable slope) were performed with Prism 8 for Mac (Graphpad Software, Inc.) and both the fits and data are shown in FIG. 1. Values represent the average of three biological replicates each with two internal replicates and are plotted as mean±S.E.M."}, "[3]": {"system": "Toxoplasma gondii strains expressing FLUC", "test": "microbe, parasite or virus in culture", "experimental": "The ability of bicyclic azetidines to inhibit different strains of T. gondii was tested using a series of firefly luciferase (FLUC)-tagged lines. […] A similar strategy was utilized to derive FLUC expressing lines from additional T. gondii strains MAS (type 4) and FOU (type 6)."}},
  "note": "pEC50: −log10 of the molar value. Read-outs that look alike come from different tables or passages of the source.",
  "data": [
    {"smiles": "COc1ccc(NC(=O)N2CCCCN3[C@H](CN(C)C)[C@H](c4ccc(C#Cc5ccccc5)cc4)[C@@H]3C2)cc1", "note": "[Compound 15, (8R,9S,10S)-10-((dimethylamino)methyl)-N-(4-methoxyphenyl)-9-(4-(phenylethynyl)phenyl)-1,6-diazabicyclo[6.2.0]decane-6-carboxamide]", "values": [
      {"measurement": "pEC50", "setting": "[1]", "result": 7.65},
      {"measurement": "pEC50", "setting": "[2]", "result": 6.60},
      {"measurement": "pEC50", "setting": "[3]; genotype 4, read-out: Average EC50 ± S.D.", "result": 7.38},
      {"measurement": "pEC50", "setting": "[3]; genotype 5, read-out: Average EC50 ± S.D.", "result": 7.57},
      {"measurement": "pEC50", "setting": "[3]; genotype 6, read-out: Average EC50 ± S.D.", "result": 7.35},
      {"measurement": "pEC50", "setting": "[3]; strain ME49, genotype 2, three or more independent titrations, read-out: Average EC50 ± S.D.", "result": 7.31},
      {"measurement": "pEC50", "setting": "[3]; strain VAND, genotype 10, three or more independent titrations, read-out: Average EC50 ± S.D.", "result": 7.55}
    ]}
  ]
}
